Patent US5663148A, “Anaphylatoxin receptor ligands containing lipophilic residues” (Abbott Laboratories, priority 1994, dated 1997)

Molecular target: T1, C5a receptor (Homo sapiens, UniProt P21730)
T1 construct: from tissue; host or cells: polymorphonuclear leukocyte (PMNL) membrane fragments
T1 sequence (P21730 1-350): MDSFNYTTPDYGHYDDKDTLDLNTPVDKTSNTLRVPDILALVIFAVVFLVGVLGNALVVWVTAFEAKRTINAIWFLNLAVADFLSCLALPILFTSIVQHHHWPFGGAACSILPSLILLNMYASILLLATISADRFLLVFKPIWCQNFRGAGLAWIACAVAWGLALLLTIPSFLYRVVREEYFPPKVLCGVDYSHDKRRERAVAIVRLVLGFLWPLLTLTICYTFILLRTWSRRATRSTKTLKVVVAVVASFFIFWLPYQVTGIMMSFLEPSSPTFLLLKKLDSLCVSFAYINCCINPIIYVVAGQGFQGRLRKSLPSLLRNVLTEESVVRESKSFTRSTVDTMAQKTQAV
Experiment: Anaphylatoxin (C5a) receptor binding Ki determination, 125I-C5a on PMNL membrane fragments
Details: read-out: Ki (In vitro C5a Receptor Binding Potency)
Procedure: The membrane-bound radiolabeled C5a was separated from the free radiolabeled C5a by filtration, and the recovered gamma radioactivity was measured. […] Free and membrane-bound ligand were separated by filtration.

SMILES | Ki [µM]
CC(=O)N[C@@H](CC1CCCCC1)C(=O)NCC(=O)N[C@@H](CC(C)C)C(=O)NC(CCCc1ccccc1)C(=O)N[C@@H](CCCNC(=N)N)C(=O)O (single isomer, unassigned) [Example 46, N-Acetyl-{(2S)-2-Amino-3-cyclohexylpropanoyl}-Glycyl-Leucyl-{(R/S)-2-Amino-5-phenylpentanoyl}-Arginyl-OH] | 22
CC(C)C[C@H](NC(=O)[C@H](C)NC(=O)[C@H](CC1CCCCC1)NC(=O)[C@@H]1CCCN1C(=O)[C@H](CCCCN)NC(=O)CN)C(=O)NC(CCCc1ccccc1)C(=O)N[C@@H](CCCNC(=N)N)C(=O)O (single isomer, unassigned) [Example 52] | 10.3
CC(C)C[C@H](NC(=O)[C@H](C)NC(=O)[C@H](CC1CCCCC1)NC(=O)[C@@H]1CCCN1C(=O)[C@H](CCCCN)NC(=O)CN)C(=O)NC(CCCc1ccccc1)C(=O)N[C@@H](CCCNC(=N)N)C(=O)O (single isomer, unassigned) [Example 53, H-Glycyl-Lysyl-Prolyl-{(2S)-2-Amino-3-cyclohexylpropanoyl}-Alanyl-Leucyl-{(R/S)-2-Amino-5-phenylpentanoyl}-Arginyl-OH] | 0.1
CC(C)C[C@H](NC(=O)CNC(=O)[C@H](CC1CCCCC1)NC(=O)[C@H](N)CCCCN)C(=O)NC(CCCc1ccccc1)C(=O)N[C@@H](CCCNC(=N)N)C(=O)O (single isomer, unassigned) [Example 56] | 26.8
CC(C)C[C@H](NC(=O)CNC(=O)[C@H](CC1CCCCC1)NC(=O)[C@H](N)CCCCN)C(=O)NC(CCCc1ccccc1)C(=O)N[C@@H](CCCNC(=N)N)C(=O)O (single isomer, unassigned) [Example 57] | 1.93
CC(C)C[C@H](NC(=O)CN(C)C(=O)[C@H](CC1CCCCC1)NC(=O)CCCCCCN)C(=O)NC(CCCc1ccccc1)C(=O)N[C@@H](CCCNC(=N)N)C(=O)O (single isomer, unassigned) [Example 60] | 19
CC(C)C[C@H](NC(=O)CN(C)C(=O)[C@H](CC1CCCCC1)NC(=O)CCCCCCN)C(=O)NC(CCCc1ccccc1)C(=O)N[C@@H](CCCNC(=N)N)C(=O)O (single isomer, unassigned) [Example 61] | 3.2
CC(C)C[C@H](NC(=O)CNC(=O)C=C1CNc2ccccc21)C(=O)N[C@H](CCCc1ccccc1)C(=O)N[C@@H](CCCNC(=N)N)C(=O)O (single isomer, unassigned) [Example 65] | 0.3
CC(C)C[C@H](NC(=O)CNC(=O)C=C1CNc2ccccc21)C(=O)N[C@H](CCCc1ccccc1)C(=O)N[C@@H](CCCNC(=N)N)C(=O)O (single isomer, unassigned) [Example 66] | 0.046
CC(C)C[C@H](NC(=O)[C@H](C)NC(=O)[C@H](CC1CCCCC1)NC(=O)[C@@H]1CCCN1C(=O)[C@@H](N)CCCCN)C(=O)NC(CCCc1ccccc1)C(=O)N[C@@H](CCCNC(=N)N)C(=O)O (single isomer, unassigned) [Example 68] | 14
CC(C)C[C@H](NC(=O)[C@H](C)NC(=O)[C@H](CC1CCCCC1)NC(=O)[C@@H]1CCCN1C(=O)[C@@H](N)CCCCN)C(=O)NC(CCCc1ccccc1)C(=O)N[C@@H](CCCNC(=N)N)C(=O)O (single isomer, unassigned) [Example 69] | 0.14
CC(C)C[C@H](NC(=O)CNC(=O)[C@H](CC1CCCCC1)NC(=O)CCCCCN)C(=O)NC(CCCc1ccccc1)C(=O)N[C@@H](CCCNC(=N)N)C(=O)O (single isomer, unassigned) [Example 70] | 4.5
CC(C)C[C@H](NC(=O)CNC(=O)[C@H](CC1CCCCC1)NC(=O)CCCCCN)C(=O)NC(CCCc1ccccc1)C(=O)N[C@@H](CCCNC(=N)N)C(=O)O (single isomer, unassigned) [Example 71] | 0.15
CC(C)C[C@H](NC(=O)CNC(=O)[C@H](CC1CCCCC1)NC(=O)CN)C(=O)NC(CCCc1ccccc1)C(=O)N[C@@H](CCCNC(=N)N)C(=O)O (single isomer, unassigned) [Example 72] | 4.27
CC(C)C[C@H](NC(=O)CNC(=O)[C@H](CC1CCCCC1)NC(=O)CN)C(=O)NC(CCCc1ccccc1)C(=O)N[C@@H](CCCNC(=N)N)C(=O)O (single isomer, unassigned) [Example 73] | 1.99
CC(C)C[C@H](NC(=O)CNC(=O)[C@H](CC1CCCCC1)N(C)C(=O)CCCCCCN)C(=O)NC(CCCc1ccccc1)C(=O)N[C@@H](CCCNC(=N)N)C(=O)O (single isomer, unassigned) [Example 75] | 17.2
CC(C)C[C@H](NC(=O)CNC(=O)[C@H](CC1CCCCC1)N(C)C(=O)CCCCCCN)C(=O)NC(CCCc1ccccc1)C(=O)N[C@@H](CCCNC(=N)N)C(=O)O (single isomer, unassigned) [Example 76] | 1.5

SMILES | Ki [µM]
CC(C)C[C@H](NC(=O)CNC(=O)[C@H](CC1CCCCC1)NC(=O)CCN)C(=O)NC(CCCc1ccccc1)C(=O)N[C@@H](CCCNC(=N)N)C(=O)O (single isomer, unassigned) [Example 84] | 3.9
CC(C)C[C@H](NC(=O)CNC(=O)[C@H](CC1CCCCC1)NC(=O)CCN)C(=O)NC(CCCc1ccccc1)C(=O)N[C@@H](CCCNC(=N)N)C(=O)O (single isomer, unassigned) [Example 85] | 2
CC(C)C[C@H](NC(=O)[C@H](CC1CCCCC1)NC(=O)CCCCCN)C(=O)NC(CCCc1ccccc1)C(=O)N[C@@H](CCCNC(=N)N)C(=O)O (single isomer, unassigned) [Example 86, N-(6-Aminohexanoyl)-{(25)-2-Amino-3-cyclohexylpropanoyl}-Leucyl-{(R/S)-2-Amino-5-phenylpentanoyl}-Arginyl-OH] | 44.8
CC(C)C[C@H](NC(=O)[C@H](CC1CCCCC1)NC(=O)CCCCCN)C(=O)NC(CCCc1ccccc1)C(=O)N[C@@H](CCCNC(=N)N)C(=O)O (single isomer, unassigned) [Example 87] | 5.8
N=C(N)NCCC[C@H](NC(=O)C(CCCc1ccccc1)NC(=O)CN(Cc1ccccc1)C(=O)[C@H](CCCCN)NC(=O)[C@@H](N)Cc1ccccc1)C(=O)O (single isomer, unassigned) [Example 94, H-Phenylalanyl-Lysyl-Glycyl(N-benzyl)-{(R/S)-2-Amino-5-phenylpentanoyl}-Arginyl-OH] | 5.8
N=C(N)NCCC[C@H](NC(=O)C(CCCc1ccccc1)NC(=O)CN(Cc1ccccc1)C(=O)[C@H](CCCCN)NC(=O)[C@@H](N)Cc1ccccc1)C(=O)O (single isomer, unassigned) [Example 95, H-Phenylalanyl-Lysyl-Glycyl(N-benzyl)-{(R/S)-2-Amino-5-phenylpentanoyl}-Arginyl-OH] | 34
CC(C)C[C@H](NC(=O)[C@H](CCCCN)NC(=O)[C@@H](N)CC1CCCCC1)C(=O)NC(CCCc1ccccc1)C(=O)N[C@@H](CCCNC(=N)N)C(=O)O (single isomer, unassigned) [Example 96] | 33.2
CC(C)C[C@H](NC(=O)[C@H](CCCCN)NC(=O)[C@@H](N)CC1CCCCC1)C(=O)NC(CCCc1ccccc1)C(=O)N[C@@H](CCCNC(=N)N)C(=O)O (single isomer, unassigned) [Example 97] | 8.2
CC(C)C[C@@H](NC(=O)CNC(=O)[C@H](CC1CCCCC1)NC(=O)CCCCCN)C(=O)NC(CCCc1ccccc1)C(=O)N[C@@H](CCCNC(=N)N)C(=O)O (single isomer, unassigned) [Example 99] | 4.8
CC(C)C[C@@H](NC(=O)CNC(=O)[C@H](CC1CCCCC1)NC(=O)CCCCCN)C(=O)NC(CCCc1ccccc1)C(=O)N[C@@H](CCCNC(=N)N)C(=O)O (single isomer, unassigned) [Example 100] | 60
CC(C)[C@H](NC(=O)CNC(=O)[C@H](CC1CCCCC1)NC(=O)CCCCCN)C(=O)NC(CCCc1ccccc1)C(=O)N[C@@H](CCCNC(=N)N)C(=O)O (single isomer, unassigned) [Example 101] | 52
CC(C)[C@H](NC(=O)CNC(=O)[C@H](CC1CCCCC1)NC(=O)CCCCCN)C(=O)NC(CCCc1ccccc1)C(=O)N[C@@H](CCCNC(=N)N)C(=O)O (single isomer, unassigned) [Example 102, N-(6-Aminohexanoyl)-{(2S)-2-Amino-3-cyclohexylpropanoyl}-Glycyl-Valyl-{(FFS)-2-Amino-5-phenylpentanoyl}-Arginyl-OH] | 21.7
CC(C)C[C@H](NC(=O)CNC(=O)C(N)CCCc1ccccc1)C(=O)N[C@H](CCCc1ccccc1)C(=O)N[C@@H](CCCNC(=N)N)C(=O)O (single isomer, unassigned) [Example 104] | 2.4
CC(C)C[C@H](NC(=O)CNC(=O)C(N)CCCc1ccccc1)C(=O)N[C@H](CCCc1ccccc1)C(=O)N[C@@H](CCCNC(=N)N)C(=O)O (single isomer, unassigned) [Example 105] | 0.33
CC(C)C[C@H](NC(=O)[C@@H]1CCCN1C(=O)[C@H](CC1CCCCC1)NC(=O)CNC(=O)CCCCCN)C(=O)NC(CCCc1ccccc1)C(=O)N[C@@H](CCCNC(=N)N)C(=O)O (single isomer, unassigned) [Example 110] | 9.3
CC(C)C[C@H](NC(=O)[C@@H]1CCCN1C(=O)[C@H](CC1CCCCC1)NC(=O)CNC(=O)CCCCCN)C(=O)NC(CCCc1ccccc1)C(=O)N[C@@H](CCCNC(=N)N)C(=O)O (single isomer, unassigned) [Example 111] | 1
CC(C)C[C@H](NC(=O)CNC(=O)[C@H](CC1CCCCC1)NC(=O)CN(C)C(=O)CCCN)C(=O)NC(CCCc1ccccc1)C(=O)N[C@@H](CCCNC(=N)N)C(=O)O (single isomer, unassigned) [Example 112] | 17.8
